Experimental findings from US20250221987A1, “PIPERAZINO RING-CONTAINING DERIVATIVE, PHARMACEUTICALLY ACCEPTABLE SALT THEREOF, PREPARATION METHOD THEREFOR, AND APPLICATION THEREOF” (ACERAND THERAPEUTICS (HONG KONG) LIMITED, priority 2022, published 2025) are described below.

SMILES strings stand for the structures.

One assay concerns MDA-MB-436 cells. The assay can be described thus: Proliferation activity assay of MDA-MB-436 cells (CellTiter-Glo). Format: cell-based. To be noted: Homo sapiens, MDA-MB-436, 144 h; 4000 cells seeded, 6 days incubation; read-out: MDA-MB-436 proliferation inhibition IC50. On the procedure: Complete culture medium was prepared and mixed thoroughly. The cells were resuscitated and cultured for about two passages to select a cell line in good growth condition. The cell culture flask was removed from the incubator. Cell adherence: the culture medium was aspirated, then the cells were washed once with trypsin to discard the waste liquid, and 3 mL of fresh trypsin was added to the culture flask for digestion. When the cells were loose to be detached from the wall of the flask, 8 mL of complete culture medium was added thereto to stop trypsin digestion and mixed gently. The cell suspension was transferred to a centrifuge tube with a pipette and centrifuged at 1000 rpm for 5 minutes. The supernatant was discarded. An appropriate volume of culture medium was added to the centrifuge tube and pipetted gently to resuspend the cells evenly. The cells were counted using a Vi-Cell XR cell counter. The cell suspension was adjusted to an appropriate concentration. The cell suspension was added to a 96-well plate at 100 µL/well. The details such as cell name, seeding density, and date were labelled, and the culture plate was placed in a CO2 incubator overnight.
The compound to be tested was prepared into a 10 mM stock solution, which was aliquoted and stored in a −20° C. freezer. The compound solution was added to a 96-well plate using HPD300. The plate was incubated in a CO2 incubator for a total of 6 days.
CellTiter-Glo buffer was melted at room temperature. The lyophilized CellTiter-Glo substrate was equilibrated to room temperature. CellTiter-Glo buffer was added to the CellTiter Glo substrate and mixed thoroughly. A cell plate was taken out and equilibrated to room temperature. 100 μL of mixed CellTiter Glo reagent was added to each well, and the mixture was shaken in the dark for 10 minutes, followed by incubation for 20 minutes. The culture plate was placed into an Enspire reading plate, and the luminescence reading results were recorded. […] A pharmacodynamic inhibition rate curve was plotted by using XLFit, and the IC50 value was calculated. The 4-parameter model [fit=(A+((B−A)/(1+((C/x)^D)))] was used.
Background: ATP-based viability assays read luminescence as a measure of living cells.

Another assay concerns the target PARP1 (Homo sapiens (Human), UniProt P09874). The assay can be described thus: PARP1 enzymatic activity assay. It is filed as biochemical. To be noted: for IC50: final PARP1 0.02 nM, DNA 0.8 nM, NAD+ 3.5 μM, 60 minutes; for PARP1/PARP2 inhibition Selectivity multiple N (N = IC50 (PARP2)/IC50 (PARP1)): ratio IC50 (PARP2)/IC50 (PARP1). As for the experimental part:
2) After the coating was completed, the coating buffer was discarded.
After washing, the blocking buffer was discarded.
4) 1000× compound was prepared. 1 μL of compound was transferred to a 96-well plate containing 199 μL of reaction buffer (50 mM Tris-HCl (pH 7.5), 0.005% Tween-20, 0.01% BSA) and mixed well.
5) 25/10×PARP1-DNA solution was prepared with reaction buffer.
6) 25/10×NAD+ solution was prepared with reaction buffer.
8) Primary antibody was 2000-fold diluted with the blocking buffer. 20 μL of primary antibody was added to the reaction plate, which was incubated at room temperature for 1.5 hours.
9) The primary antibody was discarded.
10) Secondary antibody was 2000-fold diluted with the blocking buffer.
11) The secondary antibody was discarded.
The chemiluminescence value RLU was read with Envision.

The target of a further assay is PARP2 (Homo sapiens (Human), UniProt Q9UGN5). As to the kind of experiment: PARP2 enzymatic activity assay. Format: biochemical. To be noted: Biotin-NAD+ 2 μM, 60 minutes.
Sequence of PARP2 (Q9UGN5 whole entry): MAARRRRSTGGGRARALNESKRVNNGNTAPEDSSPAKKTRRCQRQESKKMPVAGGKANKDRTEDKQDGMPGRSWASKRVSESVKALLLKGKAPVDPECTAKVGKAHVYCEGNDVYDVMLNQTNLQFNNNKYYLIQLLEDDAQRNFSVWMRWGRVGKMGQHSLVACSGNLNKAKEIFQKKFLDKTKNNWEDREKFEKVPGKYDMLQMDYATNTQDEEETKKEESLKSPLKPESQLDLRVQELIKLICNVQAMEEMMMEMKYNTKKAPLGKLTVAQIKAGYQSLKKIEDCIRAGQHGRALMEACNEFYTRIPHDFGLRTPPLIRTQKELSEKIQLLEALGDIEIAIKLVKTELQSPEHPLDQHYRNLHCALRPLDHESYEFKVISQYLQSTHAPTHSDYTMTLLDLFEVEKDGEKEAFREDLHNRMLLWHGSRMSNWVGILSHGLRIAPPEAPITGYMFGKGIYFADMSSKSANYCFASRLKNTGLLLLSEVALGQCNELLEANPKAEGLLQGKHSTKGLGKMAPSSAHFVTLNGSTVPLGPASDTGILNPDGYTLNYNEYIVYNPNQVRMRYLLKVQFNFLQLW

Sequence of PARP1 (P09874 whole entry): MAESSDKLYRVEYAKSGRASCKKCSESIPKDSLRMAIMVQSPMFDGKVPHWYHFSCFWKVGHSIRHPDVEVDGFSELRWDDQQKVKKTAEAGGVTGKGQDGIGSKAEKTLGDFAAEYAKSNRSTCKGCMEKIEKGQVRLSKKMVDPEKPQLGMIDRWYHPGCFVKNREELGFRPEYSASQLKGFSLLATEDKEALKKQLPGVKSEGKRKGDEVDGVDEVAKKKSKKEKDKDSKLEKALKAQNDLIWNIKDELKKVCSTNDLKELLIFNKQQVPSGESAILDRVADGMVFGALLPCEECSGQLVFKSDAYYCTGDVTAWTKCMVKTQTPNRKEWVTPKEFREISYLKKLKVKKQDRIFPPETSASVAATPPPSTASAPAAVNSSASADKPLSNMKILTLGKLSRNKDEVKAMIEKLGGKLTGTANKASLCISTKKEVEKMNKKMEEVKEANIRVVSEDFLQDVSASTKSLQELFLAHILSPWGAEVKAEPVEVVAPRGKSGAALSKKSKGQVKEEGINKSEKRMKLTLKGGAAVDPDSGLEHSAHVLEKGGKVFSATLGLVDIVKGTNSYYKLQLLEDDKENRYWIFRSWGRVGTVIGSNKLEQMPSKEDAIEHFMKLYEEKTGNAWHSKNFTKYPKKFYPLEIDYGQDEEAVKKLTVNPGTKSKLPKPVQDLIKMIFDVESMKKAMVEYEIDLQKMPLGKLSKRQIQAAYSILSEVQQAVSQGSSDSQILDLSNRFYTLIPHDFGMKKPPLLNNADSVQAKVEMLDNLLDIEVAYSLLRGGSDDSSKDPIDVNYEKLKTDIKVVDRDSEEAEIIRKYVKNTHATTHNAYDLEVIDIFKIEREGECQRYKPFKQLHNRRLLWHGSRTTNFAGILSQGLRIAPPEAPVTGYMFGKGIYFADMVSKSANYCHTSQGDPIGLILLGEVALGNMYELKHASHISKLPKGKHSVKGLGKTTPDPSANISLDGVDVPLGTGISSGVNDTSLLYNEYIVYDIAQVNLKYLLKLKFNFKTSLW

As to `CNC(=O)c1ccc(N2CCN(Cc3cnc4c5c(c(=O)[nH]c4c3)CCC5)[C@@H]3CC[C@@H]32)cn1` [Example 12-1, N-methyl-5-[(1S,6R)-5-((6-oxo-5H,7H,8H,9H-cyclopenta[c][1,5]naphthyridin-3-yl)methyl)-2,5-diazabicyclo[4.2.0]octan-2-yl]pyridine-2-carboxamide], the IC50 came to 15 nM in the assay on MDA-MB-436 cells, 0.3 nM at PARP1 and 18 nM against PARP2 (final PARP2 1.5 nM). For the same molecule, the “PARP1/PARP2 inhibition Selectivity multiple N (N = IC50 (PARP2)/IC50 (PARP1))” value on PARP1 was determined as 60.

For `CCc1cc2nnc(CN3CCN(c4ccc(C(=O)NC)nc4)[C@@H]4C[C@@H]43)cc2[nH]c1=O` [Example 5-1], the IC50 on PARP1 amounted to 0.9 nM; on PARP2 (final PARP2 […]), 75 nM. For the same molecule, the “PARP1/PARP2 inhibition Selectivity multiple N (N = IC50 (PARP2)/IC50 (PARP1))” value at PARP1 is 83.

For the molecule `CNC(=O)c1ccc(N2CCN(Cc3cnc4cc(C(F)(F)F)c(=O)[nH]c4c3)[C@@H]3CC[C@@H]32)cn1` [Example 30-1, N-methyl-5-((1S,6R)-5-((6-oxo-7-(trifluoromethyl)-5,6-dihydro-1,5-naphthyridin-3-yl)methyl)-2,5-diazabicyclo[4.2.0]octan-2-yl)picolinamide], the IC50 with MDA-MB-436 cells came out at 2 nM.

In the case of `CCc1cc2ncc(CN3CCN(c4ccc(C(=O)NC)nc4)C4CCC43)cc2[nH]c1=O` (centres unmarked) [Example 2, 5-(5-((7-ethyl-6-carbonyl-5,6-dihydro-1,5-naphthyridin-3-yl)methyl)-2,5-diazabicyclo[4.2.0]octan-2-yl)-N-methylpyridine-2-carboxamide], the IC50 in the assay on MDA-MB-436 cells came to 5 nM. Moreover, at PARP1, the “PARP1/PARP2 inhibition Selectivity multiple N (N = IC50 (PARP2)/IC50 (PARP1))” value came out at 16.

For `CCc1cc2ncc(CN3CCN(c4ccc(C(=O)NC5CCC5)nc4)[C@H]4CC[C@H]43)cc2[nH]c1=O` [Example 48-2, N-cyclobutyl-5-((1S,6R)-5-((7-ethyl-6-oxo-5,6-dihydro-1,5-naphthyridin-3-yl)methyl)-2,5-diazabicyclo[4.2.0]octan-2-yl)picolinamide], in the assay with MDA-MB-436 cells, the IC50 was 2 nM.

Regarding `CCc1nc2ncc(CN3CCN(c4ccc(C(=O)NC)nc4)[C@@H]4CC[C@@H]43)cc2[nH]c1=O` [Example 11-2, 5-((1R,6S)-5-((3-ethyl-2-oxo-1,2-dihydropyrido[2,3-b]pyrazin-7-yl)methyl)-2,5-diazabicyclo[4.2.0]octan-2-yl)-N-methylpicolinamide], the IC50 in the assay with MDA-MB-436 cells turned out to be 9 nM; against PARP1, 1.5 nM; on PARP2 (final PARP2 1.5 nM), 202 nM. For the same molecule, at PARP1, the “PARP1/PARP2 inhibition Selectivity multiple N (N = IC50 (PARP2)/IC50 (PARP1))” value is 135.

With `CNC(=O)c1ccc(N2CCN(Cc3cnc4cc(C5CC5)c(=O)[nH]c4c3)[C@@H]3CC[C@@H]32)cn1` [Example 16-2], the IC50 in the assay with MDA-MB-436 cells was found to be 6 nM.

`CCc1nc2ncc(CN3CCN(c4ccc(C(=O)NC)nc4)[C@H]4CC[C@H]43)cc2[nH]c1=O` [Example 11-1, 5-((1S,6R)-5-((3-ethyl-2-oxo-1,2-dihydropyrido[2,3-b]pyrazin-7-yl)methyl)-2,5-diazabicyclo[4.2.0]octan-2-yl)-N-methylpicolinamide]: on PARP1, the IC50 was determined as 3.9 nM and the “PARP1/PARP2 inhibition Selectivity multiple N (N = IC50 (PARP2)/IC50 (PARP1))” value is 69. Moreover, the IC50 on PARP2 (final PARP2 […]) was determined as 272 nM.

For `CNC(=O)c1ccc(N2CCN(Cc3cnc4c5c(c(=O)[nH]c4c3)CCC5)[C@@H]3C[C@@H]32)cn1` (relative stereo) [Example 7, cis-N-methyl-5-(5-((6-oxo-6,7,8,9-tetrahydro-5H-cyclopenta[c][1,5]naphthyridin-3-yl)methyl)-2,5-diazabicyclo[4.1.0]heptan-2-yl)picolinamide], the IC50 in the assay with MDA-MB-436 cells is 13 nM.

On to `CCc1cc2ncc(CN3CCN(c4ccc(C(=O)NC5CC5)nc4)[C@@H]4CC[C@@H]43)cc2[nH]c1=O` [Example 46-2, N-cyclopropyl-5-((1R,6S)-5-((7-ethyl-6-oxo-5,6-dihydro-1,5-naphthyridin-3-yl)methyl)-2,5-diazabicyclo[4.2.0]octan-2-yl)picolinamide], for which the IC50 in the assay on MDA-MB-436 cells turned out to be 2 nM.

For the molecule `CCc1cc2ncc(CN3CCN(c4ccc(C(=O)NC5CC5)nc4)[C@H]4CC[C@H]43)cc2[nH]c1=O` [Example 46-1, N-cyclopropyl-5-((1S,6R)-5-((7-ethyl-6-oxo-5,6-dihydro-1,5-naphthyridin-3-yl)methyl)-2,5-diazabicyclo[4.2.0]octan-2-yl)picolinamide], the IC50 in the assay with MDA-MB-436 cells worked out at 8 nM.

As for `CCc1cc2ncc(CN3CCN(c4ccc(C(=O)NC5CC5)nc4F)[C@H]4CC[C@H]43)cc2[nH]c1=O` [Example 47-2, N-cyclopropyl-5-((1S,6R)-5-((7-ethyl-6-oxo-5,6-dihydro-1,5-naphthyridin-3-yl)methyl)-2,5-diazabicyclo[4.2.0]octan-2-yl)-6-fluoropicolinamide], the IC50 in the assay with MDA-MB-436 cells was 3 nM.

For the molecule `CCc1cc2ncc(CN3CCN(c4ccc(C(=O)NC)nc4)[C@@H]4CC[C@H]43)cc2[nH]c1=O` [Example 2-3, 5-((1R,6R)-5-((7-ethyl-6-carbonyl-5,6-dihydro-1,5-naphthyridin-3-yl)methyl)-2,5-diazabicyclo[4.2.0]octan-2-yl)-N-methylpyridine-2-carboxamide], on PARP1, the “PARP1/PARP2 inhibition Selectivity multiple N (N = IC50 (PARP2)/IC50 (PARP1))” value is 48.

`CCc1cc2nnc(CN3CCN(c4ccc(C(=O)NC)nc4)C4C[C@H]43)cc2[nH]c1=O` (some centres unmarked) [Example 5-2]: the results for the IC50 on PARP1 and at PARP2 (final PARP2 […]) were 0.5 nM and 32 nM, respectively. Also, on PARP1, the “PARP1/PARP2 inhibition Selectivity multiple N (N = IC50 (PARP2)/IC50 (PARP1))” value stood at 64.

As to `CCc1cc2nnc(CN3CCN(c4ccc(C(=O)NC)nc4)C4C[C@H]43)cc2[nH]c1=O` (some centres unmarked) [Example 5], the IC50 against PARP1 came out at 0.5 nM; against PARP2 (final PARP2 […]), 31 nM. Also, the “PARP1/PARP2 inhibition Selectivity multiple N (N = IC50 (PARP2)/IC50 (PARP1))” value at PARP1 came out at 62.

In the case of `CCc1cc2ncc(CN3CCN(c4ccc(C(=O)NC5CCC5)nc4)[C@@H]4CC[C@@H]43)cc2[nH]c1=O` [Example 48-1, N-cyclobutyl-5-((1R,6S)-5-((7-ethyl-6-oxo-5,6-dihydro-1,5-naphthyridin-3-yl)methyl)-2,5-diazabicyclo[4.2.0]octan-2-yl)picolinamide], in the assay on MDA-MB-436 cells, the IC50 was found to be 12 nM.

Turning to `CNC(=O)c1ccc(N2CCN(Cc3cnc4cc(OC)c(=O)[nH]c4c3)[C@@H]3CCC32)cn1` (some centres unmarked) [Example 33-2], at PARP1, the IC50 amounted to 2.3 nM and the “PARP1/PARP2 inhibition Selectivity multiple N (N = IC50 (PARP2)/IC50 (PARP1))” value is listed as more than 130. The IC50 against PARP2 (final PARP2 […]) is more than 300 nM.

In the case of `CCc1cc2ncc(CN3CCN(c4ccc(C(=O)NC)nc4)[C@H]4CC[C@@H]43)cc2[nH]c1=O` [Example 2-4, 5-((1S,6S)-5-((7-ethyl-6-carbonyl-5,6-dihydro-1,5-naphthyridin-3-yl)methyl)-2,5-diazabicyclo[4.2.0]octan-2-yl)-N-methylpyridine-2-carboxamide], the IC50 in the assay with MDA-MB-436 cells turned out to be 2 nM. Moreover, the “PARP1/PARP2 inhibition Selectivity multiple N (N = IC50 (PARP2)/IC50 (PARP1))” value on PARP1 stood at 40.

As for `CCc1cc2ncc(CN3CCN(c4ccc(C(=O)NC5CC5)nc4)[C@H]4CC[C@H]43)cc2[nH]c1=O` (relative stereo) [Example 46, cis-N-cyclopropyl-5-(5-((7-ethyl-6-oxo-5,6-dihydro-1,5-naphthyridin-3-yl)methyl)-2,5-diazabicyclo[4.2.0]octan-2-yl)pyridine-2-carboxamide], the IC50 in the assay with MDA-MB-436 cells turned out to be 5 nM.

As to `CNC(=O)c1ccc(N2CCN(Cc3cnc4cc(OC)c(=O)[nH]c4c3)[C@H]3CC[C@H]32)cn1` [Example 33-1], on PARP1, the “PARP1/PARP2 inhibition Selectivity multiple N (N = IC50 (PARP2)/IC50 (PARP1))” value is more than 45.

Consider `CCc1cc2nnc(CN3CCN(c4ccc(C(=O)NC)nc4)[C@@H]4CC[C@@H]43)cc2[nH]c1=O` [Example 10-1], for which the IC50 at PARP1 was 0.8 nM; against PARP2 (final PARP2 […]), 36 nM. Besides, at PARP1, the “PARP1/PARP2 inhibition Selectivity multiple N (N = IC50 (PARP2)/IC50 (PARP1))” value worked out at 45.
